# Key:
# Assay in all cases: relative viability (nuclei count vs DMSO), 5 days (fraction); higher = more cells survive
# [1] = compound: C1CSC2=C(C(=O)N1)SC3=C2C=C(C=C3)O [kb NB 142-70] + CS(=O)(=O)CCNCc1ccc(-c2ccc3ncnc(Nc4ccc(OCc5cccc(F)c5)c(Cl)c4)c3c2)o1 [Lapatinib] (partner 2 µM)
# In short: (§1)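 Lung cancer cell lines in 1536-well plates were dosed by pin tool the day after seeding, either with one drug alone or with a fixed anchor-drug dose plus five library-drug doses (not always all listed) in √10 steps. After 5 days, cells were fixed and their nuclei stained in one step (final 0.05% Triton X-100, 1% formaldehyde, 1 ug/ml Hoechst), then counted on 4× images. Relative viability is the nuclei count in treated wells divided by that in vehicle wells. Values are medians of duplicate plates.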
# [2] = compound: C1CSC2=C(C(=O)N1)SC3=C2C=C(C=C3)O [kb NB 142-70] + Cc1nc(NC(=O)N2CCC[C@H]2C(N)=O)sc1-c1ccnc(C(C)(C)C(F)(F)F)c1 [Alpelisib] (partner 2 µM)
# In short: as §1
# [3] = compound: NCC(=O)Nc1ccc(-n2nc(C(F)(F)F)cc2-c2ccc3c(ccc4ccccc43)c2)cc1 + CC(=O)Nc1cccc(-n2c(=O)n(C3CC3)c(=O)c3c(Nc4ccc(I)cc4F)n(C)c(=O)c(C)c32)c1 [Trametinib] (partner 0.02 µM)
# In short: as §1
# [4] = compound: NCC(=O)Nc1ccc(-n2nc(C(F)(F)F)cc2-c2ccc3c(ccc4ccccc43)c2)cc1 + C[C@]1(O)C[C@@H](c2nc(-c3ccc4ccc(-c5ccccc5)nc4c3)c3c(N)nccn32)C1 [Linsitinib] (partner 1 µM)
# In short: as §1
cell line,measurement,setting,value
UMC-11,relative viability,[1]; first compound 0.1 µM,0.964
same,relative viability,[1]; first compound 1 µM,0.836
same,relative viability,[1]; first compound 3.162 µM,0.535
same,relative viability,[2]; first compound 0.1 µM,0.96
same,relative viability,[2]; first compound 1 µM,0.959
same,relative viability,[2]; first compound 3.162 µM,0.418
same,relative viability,[3]; first compound 0.02 µM,0.645
same,relative viability,[3]; first compound 0.06325 µM,0.85
same,relative viability,[3]; first compound 0.2 µM,0.751
same,relative viability,[3]; first compound 0.6325 µM,0.773
same,relative viability,[3]; first compound 2 µM,0.747
same,relative viability,[4]; first compound 0.02 µM,0.995
same,relative viability,[4]; first compound 0.06325 µM,1.03
same,relative viability,[4]; first compound 0.2 µM,1.16
same,relative viability,[4]; first compound 0.6325 µM,0.966
same,relative viability,[4]; first compound 2 µM,0.918

# — the supplement of paper PMC10307832
